In ChEMBL document CHEMBL1123880, “Beta-adrenoceptor antagonist activity of bivalent ligands. 1. Diamide analogues of practolol” (J Med Chem, 1987):

How the values were obtained:
[1] = biological target: Beta-2 adrenergic receptor (Rattus norvegicus) (UniProt P10608); details: Lung, Membrane
Description: Apparent dissociation constant towards beta-2 adrenergic receptor in rat lung membranes using (2-6)x10E-9M of [3AH]-DHA in the presence or absence of 10e-5 M (+/-) propranolol.

Rattus norvegicus = species on record: Rattus norvegicus; test: Ratio of dissociation constant KD' of rat lung to KD' of rat heart; type: tissue-based
[2] = biological target: Beta-1 adrenergic receptor (Rattus norvegicus) (UniProt P18090); details: Heart, Membrane
Sequence of Beta-1 adrenergic receptor (Rattus norvegicus) (P18090 whole entry, looked up): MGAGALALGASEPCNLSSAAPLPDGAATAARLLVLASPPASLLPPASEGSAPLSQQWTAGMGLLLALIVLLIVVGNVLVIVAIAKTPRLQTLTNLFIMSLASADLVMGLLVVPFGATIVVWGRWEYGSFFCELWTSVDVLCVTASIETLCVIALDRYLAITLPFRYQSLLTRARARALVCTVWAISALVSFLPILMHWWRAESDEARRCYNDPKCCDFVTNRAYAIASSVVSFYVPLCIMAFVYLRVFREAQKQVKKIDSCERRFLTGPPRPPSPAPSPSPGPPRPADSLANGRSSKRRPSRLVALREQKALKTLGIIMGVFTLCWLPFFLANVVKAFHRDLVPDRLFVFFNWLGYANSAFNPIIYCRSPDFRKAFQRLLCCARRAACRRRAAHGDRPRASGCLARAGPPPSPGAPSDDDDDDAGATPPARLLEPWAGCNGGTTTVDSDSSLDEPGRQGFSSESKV
Description: Apparent dissociation constant towards beta-1 adrenergic receptor in rat heart membranes using (2-6)x10E-9M of [3AH]-DHA in the presence or absence of 10e-5 M (+/-) propranolol.

Sequence of Beta-2 adrenergic receptor (Rattus norvegicus) (P10608 whole entry, looked up): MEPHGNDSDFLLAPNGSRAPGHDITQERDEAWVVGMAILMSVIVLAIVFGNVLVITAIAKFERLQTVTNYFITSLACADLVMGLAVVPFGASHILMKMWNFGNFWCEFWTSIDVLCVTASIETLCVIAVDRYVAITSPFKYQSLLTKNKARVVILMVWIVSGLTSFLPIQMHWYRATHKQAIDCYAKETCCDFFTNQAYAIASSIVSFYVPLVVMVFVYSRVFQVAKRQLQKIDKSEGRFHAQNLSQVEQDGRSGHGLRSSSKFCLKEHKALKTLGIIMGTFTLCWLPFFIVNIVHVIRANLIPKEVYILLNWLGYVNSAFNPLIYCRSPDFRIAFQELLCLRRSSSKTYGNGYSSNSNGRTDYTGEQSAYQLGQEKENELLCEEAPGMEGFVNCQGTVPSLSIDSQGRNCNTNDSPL

Structure (SMILES)	KD' [1]	Ratio (Rattus norvegicus)	KD' [2]
CC(C)NCC(O)COc1ccc(NC(=O)CNCCCCCCNCC(=O)Nc2ccc(OCC(O)CNC(C)C)cc2)cc1 (configuration not stated)	28.1 µM	5.6	5 µM
CC(C)NCC(O)COc1ccc(NC(=O)CCCCCCCCC(=O)Nc2ccc(OCC(O)CNC(C)C)cc2)cc1 (configuration not stated)	1.4 µM	14	0.1 µM
CC(C)NCC(O)COc1ccc(NC(=O)CN2CCN(CC(=O)Nc3ccc(OCC(O)CNC(C)C)cc3)CC2)cc1 (configuration not stated)	28.1 µM	13.4	2.1 µM
CC(C)NCC(O)COc1ccc(NC(=O)CNCCCCNCC(=O)Nc2ccc(OCC(O)CNC(C)C)cc2)cc1 (configuration not stated)	186 µM	5.8	32.2 µM
CC(C)NCC(O)COc1ccc(NC(=O)CNCCCCCCCCNCC(=O)Nc2ccc(OCC(O)CNC(C)C)cc2)cc1 (configuration not stated)	3.9 µM	7.8	0.5 µM
CC(=O)Nc1ccc(OCC(O)CNC(C)C)cc1 (configuration not stated)	36.5 µM	5.9	6.2 µM

Now from value to molecule:

KD' [1]	Ratio (Rattus norvegicus)	KD' [2]	Structure (SMILES)
3.9 µM	0.9	4.4 µM	CC(C)NCC(O)COc1ccc(NC(=O)CCCCCCC(=O)Nc2ccc(OCC(O)CNC(C)C)cc2)cc1 (configuration not stated)
67.5 µM	7.5	9 µM	CC(C)NCC(O)COc1ccc(NC(=O)CCCCC(=O)Nc2ccc(OCC(O)CNC(C)C)cc2)cc1 (configuration not stated)
28.1 µM	1.7	16.3 µM	CC(C)NCC(O)COc1ccc(NC(=O)CCC(=O)Nc2ccc(OCC(O)CNC(C)C)cc2)cc1 (configuration not stated)
